# Results published in PubChem BioAssay AID1259411 (Chemical Carcinogenesis Research Information System (CCRIS), 2018).
# Calls of active or inactive are those of the source. The rule behind the calls is not given here.
# System: rodent carcinogenicity bioassays, tumor incidence
# Assay: CCRIS carcinogenicity studies
# In short: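 NCI-built, expert-reviewed records of carcinogenicity and related test outcomes (mutagenicity, tumor promotion/inhibition) compiled from published and report sources, historical span 1985-2011, not updated.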
compound,measurement,setting,value
C=Cc1ccccc1,carcinogen call,"Species: MOUSE, Strain/Sex: B6C3F1/FEMALE, Route: GAVAGE, Dose: 0, 150, 300 MG/KG FOR 78 WK (STUDY DURATION: 91 WK), Dose: 0, 150, 300 MG/KG FOR 78 WK (STUDY DURATION: 91 WK)",inactive; negative
same,carcinogen call,"Species: MOUSE, Strain/Sex: B6C3F1/MALE, Route: GAVAGE, Dose: 0, 150, 300 MG/KG FOR 78 WK (STUDY DURATION: 91 WK), Dose: 0, 150, 300 MG/KG FOR 78 WK (STUDY DURATION: 91 WK), Tumor Site: Type of Lesion: LUNG: ADENOMA, CARCINOMA",equivocal
same,carcinogen call,"Species: MOUSE, Strain/Sex: C57BL/FEMALE, Route: GAVAGE, Dose: 0, 300 MG/KG BW IN 0.1 ML OLIVE OIL FOR LIFE BEGINNING POST WEANING ADMINISTERED TO OFFSPRING OF FEMALES GIVEN 1350 MG/K",inactive; negative
same,carcinogen call,"Species: MOUSE, Strain/Sex: C57BL/FEMALE, Route: GAVAGE, Dose: 0, 300 MG/KG BW IN 0.1 ML OLIVE OIL ONCE ON DAY 17 OF PREGNANCY (STUDY DURATION: 120 WK)",inactive; negative
same,carcinogen call,"Species: MOUSE, Strain/Sex: C57BL/MALE, Route: GAVAGE, Dose: 0, 300 MG/KG BW IN 0.1 ML OLIVE OIL FOR LIFE BEGINNING POST WEANING ADMINISTERED TO OFFSPRING OF FEMALES GIVEN 300 MG/KG",inactive; negative
same,carcinogen call,"Species: MOUSE, Strain/Sex: CD-1/FEMALE, Route: INHALATION, Dose: 0, 20, 40, 80, 160 PPM IN CHAMBER FOR 6 HR/D 5D/WK FOR 98 WK (STUDY DURATION: 98 WK), Dose: 0, 20, 40, 80, 160 PPM IN CHAMBER FOR 6 HR/D 5D/WK FOR 98 WK (STUDY DURATION: 98 WK), Tumor Site: Type of Lesion: LUNG: BRONCHIOLOALVEOLAR ADENOMA, BRONCHIOLOALVEOLAR CARCINOMA",active; positive
same,carcinogen call,"Species: MOUSE, Strain/Sex: CD-1/MALE, Route: INHALATION, Dose: 0, 20, 40, 80, 160 PPM IN CHAMBER FOR 6 HR/D 5D/WK FOR 104 WK (STUDY DURATION: 104 WK), Dose: 0, 20, 40, 80, 160 PPM IN CHAMBER FOR 6 HR/D 5D/WK FOR 104 WK (STUDY DURATION: 104 WK), Tumor Site: Type of Lesion: LUNG: BRONCHIOLOALVEOLAR ADENOMA",active; positive
same,carcinogen call,"Species: MOUSE, Strain/Sex: O20/FEMALE, Route: GAVAGE, Dose: 0, 1350 MG/KG BW IN 0.1 ML OLIVE OIL FOR 16 WK POST WEANING ADMINISTERED TO OFFSPRING OF FEMALES GIVEN 1350 MG/KG ON DAY, Tumor Site: Type of Lesion: LUNG: ADENOMA OR CARCINOMA",active; positive
same,carcinogen call,"Species: MOUSE, Strain/Sex: O20/FEMALE, Route: GAVAGE, Dose: 0, 1350 MG/KG BW IN 0.1 ML OLIVE OIL ONCE ON DAY 17 OF PREGNANCY (STUDY DURATION: 120 WK)",inactive; negative
same,carcinogen call,"Species: MOUSE, Strain/Sex: O20/MALE,FEMALE, Route: GAVAGE, Tumor Site: Type of Lesion: LUNG: ADENOMA, ADENOCARCINOMA",active; positive
same,carcinogen call,"Species: MOUSE, Strain/Sex: O20/MALE, Route: GAVAGE, Dose: 0, 1350 MG/KG BW IN 0.1 ML OLIVE OIL FOR 16 WK POST WEANING ADMINISTERED TO OFFSPRING OF FEMALES GIVEN 1350 MG/KG ON DAY, Tumor Site: Type of Lesion: LUNG: ADENOMA OR CARCINOMA",active; positive
same,carcinogen call,"Species: MOUSE, Strain/Sex: STRAIN-A/FEMALE, Route: INTRAPERITONEAL, Dose: 0, 10 UMOL IN 0.1 ML OLIVE OIL 3/WK FOR 20 DOSES (TOTAL DOSE: 200 UMOL) (STUDY DURATION: 27 WK)",inactive; negative
same,carcinogen call,"Species: RAT, Strain/Sex: BDIV/FEMALE, Route: GAVAGE, Dose: 0, 500 MG/KG BW IN 0.3 ML OLIVE OIL FOR LIFE BEGINNING POST WEANING ADMINISTERED TO OFFSPRING OF FEMALES GIVEN 1350 MG/K",inactive; negative
same,carcinogen call,"Species: RAT, Strain/Sex: BDIV/FEMALE, Route: GAVAGE, Dose: 0, 1350 MG/KG BW IN 0.3 ML OLIVE OIL ONCE ON DAY 17 OF PREGNANCY (STUDY DURATION: 120 WK)",inactive; negative
same,carcinogen call,"Species: RAT, Strain/Sex: BDIV/MALE, Route: GAVAGE, Dose: 0, 500 MG/KG BW IN 0.3 ML OLIVE OIL FOR LIFE BEGINNING POST WEANING ADMINISTERED TO OFFSPRING OF FEMALES GIVEN 1350 MG/K",inactive; negative
same,carcinogen call,"Species: RAT, Strain/Sex: F344/FEMALE, Route: GAVAGE, Dose: 0, 500 MG/KG FOR 103 WK (STUDY DURATION: 104 WK), 1,000, 2,000 MG/KG FOR 78 WK (STUDY DURATION: 105 WK), Dose: 0, 500 MG/KG FOR 103 WK (STUDY DURATION: 104 WK), 1,000, 2,000 MG/KG FOR 78 WK (STUDY DURATION: 105 WK)",inactive; negative
same,carcinogen call,"Species: RAT, Strain/Sex: F344/MALE, Route: GAVAGE, Dose: 0, 500 MG/KG FOR 103 WK (STUDY DURATION: 104 WK), 1,000, 2,000 MG/KG FOR 78 WK (STUDY DURATION: 105 WK), Dose: 0, 500 MG/KG FOR 103 WK (STUDY DURATION: 104 WK), 1,000, 2,000 MG/KG FOR 78 WK (STUDY DURATION: 105 WK)",inactive; negative
same,carcinogen call,"Species: RAT, Strain/Sex: SPRAGUE-DAWLEY/FEMALE, Route: GAVAGE, Dose: 0, 50, 250 MG/KG BW IN OLIVE OIL 1/D 4-5 D/WK FOR 52 WK (STUDY DURATION: LIFETIME), Dose: 0, 50, 250 MG/KG BW IN OLIVE OIL 1/D 4-5 D/WK FOR 52 WK (STUDY DURATION: LIFETIME), Tumor Site: Type of Lesion: [BRAIN WAS ONLY SITE EVALUATED]",inactive; negative
same,carcinogen call,"Species: RAT, Strain/Sex: SPRAGUE-DAWLEY/FEMALE, Route: INHALATION, Dose: 0, 25, 50, 100, 200, 300 PPM 4 HR/D, 5 D/WK FOR 52 WK (STUDY DURATION: LIFESPAN), Dose: 0, 25, 50, 100, 200, 300 PPM 4 HR/D, 5 D/WK FOR 52 WK (STUDY DURATION: LIFESPAN), Tumor Site: Type of Lesion: MAMMARY GLAND: BENIGN TUMOR, MALIGNANT TUMOR",active; positive
same,carcinogen call,"Species: RAT, Strain/Sex: SPRAGUE-DAWLEY/FEMALE, Route: INHALATION, Dose: 0, 25, 50, 100, 200, 300 PPM IN AIR 4 HR/D 5 D/WK FOR 52 WK (STUDY DURATION: LIFETIME), Dose: 0, 25, 50, 100, 200, 300 PPM IN AIR 4 HR/D 5 D/WK FOR 52 WK (STUDY DURATION: LIFETIME), Tumor Site: Type of Lesion: [BRAIN WAS ONLY SITE EVALUATED]",inactive; negative
same,carcinogen call,"Species: RAT, Strain/Sex: SPRAGUE-DAWLEY/FEMALE, Route: INTRAGASTRIC, Dose: 0, 50, 250 MG/KG IN OLIVE OIL 1/D, 4-5 D/WK FOR 52 WK (STUDY DURATION: LIFESPAN), Dose: 0, 50, 250 MG/KG IN OLIVE OIL 1/D, 4-5 D/WK FOR 52 WK (STUDY DURATION: LIFESPAN)",inactive; negative
same,carcinogen call,"Species: RAT, Strain/Sex: SPRAGUE-DAWLEY/FEMALE, Route: INTRAPERITONEAL, Dose: 0, 50 MG/RAT IN OLIVE OIL, 1/2 MO FOR 8 MO (STUDY DURATION: LIFESPAN)",inactive; negative
same,carcinogen call,"Species: RAT, Strain/Sex: SPRAGUE-DAWLEY/FEMALE, Route: SUBCUTANEOUS, Dose: 0, 50 MG/RAT IN OLIVE OIL ONCE (STUDY DURATION: LIFESPAN)",inactive; negative
same,carcinogen call,"Species: RAT, Strain/Sex: SPRAGUE-DAWLEY/MALE, Route: GAVAGE, Dose: 0, 50, 250 MG/KG BW IN OLIVE OIL 1/D 4-5 D/WK FOR 52 WK (STUDY DURATION: LIFETIME), Dose: 0, 50, 250 MG/KG BW IN OLIVE OIL 1/D 4-5 D/WK FOR 52 WK (STUDY DURATION: LIFETIME), Tumor Site: Type of Lesion: [BRAIN WAS ONLY SITE EVALUATED]",inactive; negative
same,carcinogen call,"Species: RAT, Strain/Sex: SPRAGUE-DAWLEY/MALE, Route: INHALATION, Dose: 0, 25, 50, 100, 200, 300 PPM 4 HR/D, 5 D/WK FOR 52 WK (STUDY DURATION: LIFESPAN), Dose: 0, 25, 50, 100, 200, 300 PPM 4 HR/D, 5 D/WK FOR 52 WK (STUDY DURATION: LIFESPAN)",inactive; negative
same,carcinogen call,"Species: RAT, Strain/Sex: SPRAGUE-DAWLEY/MALE, Route: INHALATION, Dose: 0, 25, 50, 100, 200, 300 PPM IN AIR 4 HR/D 5 D/WK FOR 52 WK (STUDY DURATION: LIFETIME), Dose: 0, 25, 50, 100, 200, 300 PPM IN AIR 4 HR/D 5 D/WK FOR 52 WK (STUDY DURATION: LIFETIME), Tumor Site: Type of Lesion: [BRAIN WAS ONLY SITE EVALUATED]",inactive; negative
same,carcinogen call,"Species: RAT, Strain/Sex: SPRAGUE-DAWLEY/MALE, Route: INTRAGASTRIC, Dose: 0, 50, 250 MG/KG IN OLIVE OIL 1/D, 4-5 D/WK FOR 52 WK (STUDY DURATION: LIFESPAN), Dose: 0, 50, 250 MG/KG IN OLIVE OIL 1/D, 4-5 D/WK FOR 52 WK (STUDY DURATION: LIFESPAN)",inactive; negative
same,carcinogen call,"Species: RAT, Strain/Sex: SPRAGUE-DAWLEY/MALE, Route: INTRAPERITONEAL, Dose: 0, 50 MG/RAT IN OLIVE OIL, 1/2 MO FOR 8 MO (STUDY DURATION: LIFESPAN)",inactive; negative
same,carcinogen call,"Species: RAT, Strain/Sex: SPRAGUE-DAWLEY/MALE, Route: SUBCUTANEOUS, Dose: 0, 50 MG/RAT IN OLIVE OIL ONCE (STUDY DURATION: LIFESPAN)",inactive; negative
same,carcinogen call,"Species: RAT, Strain/Sex: STRAIN-CD/FEMALE, Route: INHALATION, Dose: 0, 50, 200, 500, 1000 PPM 6HR/D 5 D/WK FOR 104 WK (STUDY DURATION:107 WK), Dose: 0, 50, 200, 500, 1000 PPM 6HR/D 5 D/WK FOR 104 WK (STUDY DURATION:107 WK)",inactive; negative
same,carcinogen call,"Species: RAT, Strain/Sex: STRAIN-CD/MALE, Route: INHALATION, Dose: 0, 50, 200, 500, 1000 PPM 6 HR/D 5 D/WK FOR 104 WK (STUDY DURATION:107 WK), Dose: 0, 50, 200, 500, 1000 PPM 6 HR/D 5 D/WK FOR 104 WK (STUDY DURATION:107 WK)",inactive; negative
